Columns and labels:
Experiment in all cases: relative viability (nuclei count vs DMSO), 5 days (fraction); higher = more cells survive
[1] = compound: COc1cc2nc(N3CCCN(C)CC3)nc(NC3CCN(Cc4ccccc4)CC3)c2cc1OC + O=C(c1cc(Cc2n[nH]c(=O)c3ccccc23)ccc1F)N1CCN(C(=O)C2CC2)CC1 [Olaparib] (partner 8 µM)
How it was run: (§1)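 Values are medians from duplicate plates. Each reflects relative viability, defined as the nuclei count of treated wells over that of vehicle wells. Lung cancer cell lines in 1536-well plates were pin-tool dosed one day after seeding with one drug alone or with a fixed anchor-drug dose plus five library-drug doses (not always all listed) in √10 steps, then fixed, stained and imaged at 4× after 5 days.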

[2] = compound: COc1cc2nc(N3CCCN(C)CC3)nc(NC3CCN(Cc4ccccc4)CC3)c2cc1OC + Nc1nc2[nH]cc(CCc3ccc(C(=O)N[C@@H](CCC(=O)O)C(=O)O)cc3)c2c(=O)[nH]1 [Pemetrexed] (partner 0.2 µM)
How it was run: as §1

AZD6482 + Vorinostat = compound: Cc1cc([C@@H](C)Nc2ccccc2C(=O)O)c2nc(N3CCOCC3)cc(=O)n2c1 [AZD6482] + O=C(CCCCCCC(=O)Nc1ccccc1)NO [Vorinostat] (partner 1 µM)
How it was run: as §1

AZD6482 + Pictilisib = compound: Cc1cc([C@@H](C)Nc2ccccc2C(=O)O)c2nc(N3CCOCC3)cc(=O)n2c1 [AZD6482] + CS(=O)(=O)N1CCN(Cc2cc3nc(-c4cccc5[nH]ncc45)nc(N4CCOCC4)c3s2)CC1 [Pictilisib] (partner 1 µM)
How it was run: as §1

For HCC-366, the relative viability ([1]; first compound 0.2 µM) was 0.451, the relative viability ([1]; first compound 0.6325 µM) was 0.304 and the relative viability ([1]; first compound 2 µM) was 0.376. For the same cell line, the relative viability ([1]; first compound 6.325 µM) was 0.294, the relative viability ([2]; first compound 0.2 µM) was 0.186 and the relative viability ([2]; first compound 0.6325 µM) was 0.151. For the same cell line, the relative viability ([2]; first compound 2 µM) was 0.171, the relative viability ([2]; first compound 6.325 µM) was 0.164 and the relative viability (AZD6482 + Vorinostat; first compound 0.08 µM) was 0.269. It also gave a relative viability (AZD6482 + Vorinostat; first compound 0.253 µM) of 0.26, a relative viability (AZD6482 + Vorinostat; first compound 0.8 µM) of 0.457 and a relative viability (AZD6482 + Vorinostat; first compound 2.53 µM) of 0.269. For the same cell line, the relative viability (AZD6482 + Vorinostat; first compound 8 µM) was 0.203, the relative viability (AZD6482 + Pictilisib; first compound 0.08 µM) was 0.115 and the relative viability (AZD6482 + Pictilisib; first compound 0.253 µM) was 0.106. For the same cell line, the relative viability (AZD6482 + Pictilisib; first compound 0.8 µM) was 0.214, the relative viability (AZD6482 + Pictilisib; first compound 2.53 µM) was 0.127 and the relative viability (AZD6482 + Pictilisib; first compound 8 µM) was 0.129.

HCC-827 showed a relative viability ([1]; first compound 0.2 µM) of 0.753, a relative viability ([1]; first compound 0.6325 µM) of 0.626 and a relative viability ([1]; first compound 2 µM) of 0.685. The relative viability ([1]; first compound 6.325 µM) was 0.622, the relative viability ([2]; first compound 0.2 µM) was 0.259 and the relative viability ([2]; first compound 0.6325 µM) was 0.277. It also gave a relative viability ([2]; first compound 2 µM) of 0.215, a relative viability ([2]; first compound 6.325 µM) of 0.235 and a relative viability (AZD6482 + Vorinostat; first compound 0.08 µM) of 0.801. It also gave a relative viability (AZD6482 + Vorinostat; first compound 0.253 µM) of 0.795, a relative viability (AZD6482 + Vorinostat; first compound 0.8 µM) of 0.912 and a relative viability (AZD6482 + Vorinostat; first compound 2.53 µM) of 0.649. The relative viability (AZD6482 + Vorinostat; first compound 8 µM) was 0.686, the relative viability (AZD6482 + Pictilisib; first compound 0.08 µM) was 0.899 and the relative viability (AZD6482 + Pictilisib; first compound 0.253 µM) was 0.814. For the same cell line, the relative viability (AZD6482 + Pictilisib; first compound 0.8 µM) was 0.848, the relative viability (AZD6482 + Pictilisib; first compound 2.53 µM) was 0.636 and the relative viability (AZD6482 + Pictilisib; first compound 8 µM) was 0.628.

With HOP-62 the relative viability ([1]; first compound 0.2 µM) was 0.393, the relative viability ([1]; first compound 0.6325 µM) was 0.202 and the relative viability ([1]; first compound 2 µM) was 0.355. For the same cell line, the relative viability ([1]; first compound 6.325 µM) was 0.537, the relative viability ([2]; first compound 0.2 µM) was 0.318 and the relative viability ([2]; first compound 0.6325 µM) was 0.257. For the same cell line, the relative viability ([2]; first compound 2 µM) was 0.3, the relative viability ([2]; first compound 6.325 µM) was 0.292 and the relative viability (AZD6482 + Vorinostat; first compound 0.08 µM) was 0.613. The relative viability (AZD6482 + Vorinostat; first compound 0.253 µM) was 0.583, the relative viability (AZD6482 + Vorinostat; first compound 0.8 µM) was 0.615 and the relative viability (AZD6482 + Vorinostat; first compound 2.53 µM) was 0.408. For the same cell line, the relative viability (AZD6482 + Vorinostat; first compound 8 µM) was 0.473, the relative viability (AZD6482 + Pictilisib; first compound 0.08 µM) was 0.76 and the relative viability (AZD6482 + Pictilisib; first compound 0.253 µM) was 0.741. It also gave a relative viability (AZD6482 + Pictilisib; first compound 0.8 µM) of 0.8, a relative viability (AZD6482 + Pictilisib; first compound 2.53 µM) of 0.556 and a relative viability (AZD6482 + Pictilisib; first compound 8 µM) of 0.667.

With IA-LM the relative viability ([1]; first compound 0.2 µM) was 0.682, the relative viability ([1]; first compound 0.6325 µM) was 0.75 and the relative viability ([1]; first compound 2 µM) was 0.831. For the same cell line, the relative viability ([1]; first compound 6.325 µM) was 0.756, the relative viability (AZD6482 + Vorinostat; first compound 0.08 µM) was 0.858 and the relative viability (AZD6482 + Vorinostat; first compound 0.253 µM) was 0.906. It also gave a relative viability (AZD6482 + Vorinostat; first compound 0.8 µM) of 1.03, a relative viability (AZD6482 + Vorinostat; first compound 8 µM) of 0.854 and a relative viability (AZD6482 + Pictilisib; first compound 0.08 µM) of 0.342. It also gave a relative viability (AZD6482 + Pictilisib; first compound 0.253 µM) of 0.247, a relative viability (AZD6482 + Pictilisib; first compound 0.8 µM) of 0.338 and a relative viability (AZD6482 + Pictilisib; first compound 8 µM) of 0.366.

LC-2-ad showed a relative viability ([1]; first compound 0.2 µM) of 0.778, a relative viability ([1]; first compound 0.6325 µM) of 0.728 and a relative viability ([1]; first compound 2 µM) of 0.72. The relative viability ([1]; first compound 6.325 µM) was 0.701, the relative viability ([2]; first compound 0.2 µM) was 0.301 and the relative viability ([2]; first compound 0.6325 µM) was 0.27. For the same cell line, the relative viability ([2]; first compound 2 µM) was 0.268, the relative viability ([2]; first compound 6.325 µM) was 0.264 and the relative viability (AZD6482 + Vorinostat; first compound 0.08 µM) was 0.703. For the same cell line, the relative viability (AZD6482 + Vorinostat; first compound 0.253 µM) was 0.702, the relative viability (AZD6482 + Vorinostat; first compound 0.8 µM) was 0.854 and the relative viability (AZD6482 + Vorinostat; first compound 2.53 µM) was 0.605. The relative viability (AZD6482 + Vorinostat; first compound 8 µM) was 0.625, the relative viability (AZD6482 + Pictilisib; first compound 0.08 µM) was 0.36 and the relative viability (AZD6482 + Pictilisib; first compound 0.253 µM) was 0.426. For the same cell line, the relative viability (AZD6482 + Pictilisib; first compound 0.8 µM) was 0.504, the relative viability (AZD6482 + Pictilisib; first compound 2.53 µM) was 0.236 and the relative viability (AZD6482 + Pictilisib; first compound 8 µM) was 0.567.

LCLC-97TM1 showed a relative viability ([1]; first compound 0.2 µM) of 0.488, a relative viability ([1]; first compound 0.6325 µM) of 0.312 and a relative viability ([1]; first compound 2 µM) of 0.48. The relative viability ([1]; first compound 6.325 µM) was 0.63, the relative viability ([2]; first compound 0.2 µM) was 0.194 and the relative viability ([2]; first compound 0.6325 µM) was 0.156. It also gave a relative viability ([2]; first compound 2 µM) of 0.189, a relative viability ([2]; first compound 6.325 µM) of 0.199 and a relative viability (AZD6482 + Vorinostat; first compound 0.08 µM) of 0.616. The relative viability (AZD6482 + Vorinostat; first compound 0.253 µM) was 0.703, the relative viability (AZD6482 + Vorinostat; first compound 0.8 µM) was 0.565 and the relative viability (AZD6482 + Vorinostat; first compound 8 µM) was 0.583. The relative viability (AZD6482 + Pictilisib; first compound 0.08 µM) was 0.246, the relative viability (AZD6482 + Pictilisib; first compound 0.253 µM) was 0.175 and the relative viability (AZD6482 + Pictilisib; first compound 0.8 µM) was 0.245. It also gave a relative viability (AZD6482 + Pictilisib; first compound 2.53 µM) of 0.176 and a relative viability (AZD6482 + Pictilisib; first compound 8 µM) of 0.146.

For LCLC-103H, the relative viability ([1]; first compound 0.2 µM) was 0.751, the relative viability ([1]; first compound 0.6325 µM) was 0.732 and the relative viability ([1]; first compound 2 µM) was 0.802. The relative viability ([1]; first compound 6.325 µM) was 0.748, the relative viability ([2]; first compound 0.2 µM) was 0.495 and the relative viability ([2]; first compound 0.6325 µM) was 0.455. It also gave a relative viability ([2]; first compound 2 µM) of 0.443, a relative viability ([2]; first compound 6.325 µM) of 0.47 and a relative viability (AZD6482 + Vorinostat; first compound 0.08 µM) of 0.661. It also gave a relative viability (AZD6482 + Vorinostat; first compound 0.253 µM) of 0.748, a relative viability (AZD6482 + Vorinostat; first compound 0.8 µM) of 0.784 and a relative viability (AZD6482 + Vorinostat; first compound 2.53 µM) of 0.565. It also gave a relative viability (AZD6482 + Vorinostat; first compound 8 µM) of 0.51, a relative viability (AZD6482 + Pictilisib; first compound 0.08 µM) of 0.6 and a relative viability (AZD6482 + Pictilisib; first compound 0.253 µM) of 0.627. It also gave a relative viability (AZD6482 + Pictilisib; first compound 0.8 µM) of 0.636, a relative viability (AZD6482 + Pictilisib; first compound 2.53 µM) of 0.439 and a relative viability (AZD6482 + Pictilisib; first compound 8 µM) of 0.591.

LK-2 was tested, and the relative viability ([1]; first compound 0.2 µM) was 0.778, the relative viability ([1]; first compound 0.6325 µM) was 0.68 and the relative viability ([1]; first compound 2 µM) was 0.893. The relative viability ([1]; first compound 6.325 µM) was 0.867, the relative viability ([2]; first compound 0.2 µM) was 0.311 and the relative viability ([2]; first compound 0.6325 µM) was 0.276. The relative viability ([2]; first compound 2 µM) was 0.296, the relative viability ([2]; first compound 6.325 µM) was 0.273 and the relative viability (AZD6482 + Vorinostat; first compound 0.08 µM) was 0.374. For the same cell line, the relative viability (AZD6482 + Vorinostat; first compound 0.253 µM) was 0.276, the relative viability (AZD6482 + Vorinostat; first compound 0.8 µM) was 0.298 and the relative viability (AZD6482 + Vorinostat; first compound 2.53 µM) was 0.384. For the same cell line, the relative viability (AZD6482 + Vorinostat; first compound 8 µM) was 0.258, the relative viability (AZD6482 + Pictilisib; first compound 0.08 µM) was 0.574 and the relative viability (AZD6482 + Pictilisib; first compound 0.8 µM) was 0.657. It also gave a relative viability (AZD6482 + Pictilisib; first compound 2.53 µM) of 0.515 and a relative viability (AZD6482 + Pictilisib; first compound 8 µM) of 0.677.

LOU-NH91 was tested, and the relative viability ([1]; first compound 0.2 µM) was 0.911, the relative viability ([1]; first compound 0.6325 µM) was 0.918 and the relative viability ([1]; first compound 2 µM) was 0.968. For the same cell line, the relative viability ([1]; first compound 6.325 µM) was 0.958, the relative viability ([2]; first compound 0.2 µM) was 0.411 and the relative viability ([2]; first compound 0.6325 µM) was 0.393. The relative viability ([2]; first compound 2 µM) was 0.401, the relative viability ([2]; first compound 6.325 µM) was 0.398 and the relative viability (AZD6482 + Vorinostat; first compound 0.08 µM) was 0.852. It also gave a relative viability (AZD6482 + Vorinostat; first compound 0.253 µM) of 0.92, a relative viability (AZD6482 + Vorinostat; first compound 0.8 µM) of 0.834 and a relative viability (AZD6482 + Vorinostat; first compound 2.53 µM) of 0.602. It also gave a relative viability (AZD6482 + Vorinostat; first compound 8 µM) of 0.712, a relative viability (AZD6482 + Pictilisib; first compound 0.08 µM) of 0.491 and a relative viability (AZD6482 + Pictilisib; first compound 0.253 µM) of 0.513. For the same cell line, the relative viability (AZD6482 + Pictilisib; first compound 0.8 µM) was 0.516, the relative viability (AZD6482 + Pictilisib; first compound 2.53 µM) was 0.48 and the relative viability (AZD6482 + Pictilisib; first compound 8 µM) was 0.493.

Source: the supplement of paper PMC10307832
